# Laboratory results taken from PMC10177510, “A Multicenter, Open-Label, Phase I/II Study of FN-1501 in Patients with Advanced Solid Tumors” (Cancers, 2023).
# Test: Phase I/II dose escalation: safety and tolerability (DLT, TEAE)
# Assay type: in vivo
# Experimental: This Phase 1/2, FIH, open-label, multi-center, single-arm, dose-escalation study was conducted in pts with histologically or cytologically confirmed advanced solid tumors or R/R AML.
# In the absence of worrisome toxicity, the remaining pts could be enrolled and dosed in that cohort. Safety evaluations were performed by investigators, the medical monitor, and the Sponsor. A Safety Monitoring Committee determined dose levels to be administered during dose escalation based on data available from the current and previous dose levels.
structure (smiles),measurement,setting,value
CN1CCN(Cc2ccc(NC(=O)c3[nH]ncc3Nc3ncnc4[nH]ccc34)cc2)CC1 [FN-1501],Dose-Limiting Toxicity,"2.5 mg/day, 4 patients",0
same,"Abdominal pain, patients with event","2.5 mg/day, N = 4",1
same,"Back pain, patients with event","2.5 mg/day, N = 4",1
same,"Constipation, patients with event","2.5 mg/day, N = 4",0
same,"Decreased appetite, patients with event","2.5 mg/day, N = 4",1
same,"Diarrhea, patients with event","2.5 mg/day, N = 4",0
same,"Dizziness, patients with event","2.5 mg/day, N = 4",0
same,"Dyspnea, patients with event","2.5 mg/day, N = 4",1
same,"Fatigue, Grade ≥ 3 TEAE, n (%)","2.5 mg/day, N = 4",1 (25)
same,"Fatigue, patients with event","2.5 mg/day, N = 4",1
same,"Infusion-related reaction, patients with event","2.5 mg/day, N = 4",0
same,"Nausea, patients with event","2.5 mg/day, N = 4",1
same,"Oedema peripheral, patients with event","2.5 mg/day, N = 4",1
same,"Pyrexia, patients with event","2.5 mg/day, N = 4",0
same,Total number of TEAEs,"2.5 mg/day, N = 4",20
same,Total patients with at least 1 TEAE,"2.5 mg/day, N = 4",4
same,"Vomiting, patients with event","2.5 mg/day, N = 4",1
same,Dose-Limiting Toxicity,"5 mg/day, 3 patients",0
same,"Abdominal pain, patients with event","5 mg/day, N = 3",1
same,"Back pain, patients with event","5 mg/day, N = 3",0
same,"Constipation, patients with event","5 mg/day, N = 3",1
same,"Decreased appetite, patients with event","5 mg/day, N = 3",0
same,"Diarrhea, patients with event","5 mg/day, N = 3",1
same,"Diarrhoea, Grade ≥ 3 TEAE, n (%)","5 mg/day, N = 3",1
same,"Dizziness, patients with event","5 mg/day, N = 3",0
same,"Dyspnea, patients with event","5 mg/day, N = 3",0
same,"Fatigue, patients with event","5 mg/day, N = 3",1
same,"Infusion-related reaction, patients with event","5 mg/day, N = 3",1
same,"Nausea, patients with event","5 mg/day, N = 3",1
same,"Oedema peripheral, patients with event","5 mg/day, N = 3",1
same,"Pyrexia, patients with event","5 mg/day, N = 3",1
same,"Small intestinal obstruction, Grade ≥ 3 TEAE, n (%)","5 mg/day, N = 3",1 (33)
same,Total number of TEAEs,"5 mg/day, N = 3",23
same,Total patients with at least 1 TEAE,"5 mg/day, N = 3",3
same,"Vomiting, patients with event","5 mg/day, N = 3",1
same,Dose-Limiting Toxicity,"10 mg/day, 5 patients",0
same,"Abdominal pain, patients with event","10 mg/day, N = 5",0
same,"Back pain, patients with event","10 mg/day, N = 5",0
same,"Bacterial sepsis, Grade ≥ 3 TEAE, n (%)","10 mg/day, N = 5",1
same,"Constipation, patients with event","10 mg/day, N = 5",1
same,"Decreased appetite, patients with event","10 mg/day, N = 5",0
same,"Delirium, Grade ≥ 3 TEAE, n (%)","10 mg/day, N = 5",1
same,"Diarrhea, patients with event","10 mg/day, N = 5",0
same,"Dizziness, patients with event","10 mg/day, N = 5",0
same,"Dyspnea, patients with event","10 mg/day, N = 5",1
same,"Fatigue, patients with event","10 mg/day, N = 5",2
same,"Infusion-related reaction, patients with event","10 mg/day, N = 5",0
same,"Lung infection, Grade ≥ 3 TEAE, n (%)","10 mg/day, N = 5",1
same,"Nausea, patients with event","10 mg/day, N = 5",1
same,"Oedema peripheral, patients with event","10 mg/day, N = 5",0
same,"Pyrexia, patients with event","10 mg/day, N = 5",0
same,"Stomatitis, Grade ≥ 3 TEAE, n (%)","10 mg/day, N = 5",1
same,Total number of TEAEs,"10 mg/day, N = 5",25
same,Total patients with at least 1 TEAE,"10 mg/day, N = 5",4
same,"Vomiting, patients with event","10 mg/day, N = 5",1
same,Dose-Limiting Toxicity,"15 mg/day, 3 patients",0
same,"Abdominal pain, patients with event","15 mg/day, N = 3",1
same,"Back pain, patients with event","15 mg/day, N = 3",1
same,"Catheter site infection, Grade ≥ 3 TEAE, n (%)","15 mg/day, N = 3",1
same,"Constipation, patients with event","15 mg/day, N = 3",1
same,"Decreased appetite, patients with event","15 mg/day, N = 3",0
same,"Diarrhea, patients with event","15 mg/day, N = 3",2
same,"Dizziness, patients with event","15 mg/day, N = 3",2
same,"Dyspnea, patients with event","15 mg/day, N = 3",0
same,"Fatigue, patients with event","15 mg/day, N = 3",0
same,"Infusion-related reaction, patients with event","15 mg/day, N = 3",1
same,"Nausea, patients with event","15 mg/day, N = 3",2
same,"Oedema peripheral, patients with event","15 mg/day, N = 3",0
same,"Pyrexia, patients with event","15 mg/day, N = 3",1
same,Total number of TEAEs,"15 mg/day, N = 3",41
same,Total patients with at least 1 TEAE,"15 mg/day, N = 3",3
same,"Vascular access complication, Grade ≥ 3 TEAE, n (%)","15 mg/day, N = 3",1
same,"Vomiting, patients with event","15 mg/day, N = 3",0
same,Dose-Limiting Toxicity,"22.5 mg/day, 4 patients",0
same,"Abdominal pain, Grade ≥ 3 TEAE, n (%)","22.5 mg/day, N = 4",1
same,"Abdominal pain, patients with event","22.5 mg/day, N = 4",2
same,"Back pain, patients with event","22.5 mg/day, N = 4",0
same,"Constipation, patients with event","22.5 mg/day, N = 4",1
same,"Decreased appetite, patients with event","22.5 mg/day, N = 4",2
same,"Diarrhea, patients with event","22.5 mg/day, N = 4",0
same,"Dizziness, patients with event","22.5 mg/day, N = 4",1
same,"Dyspnea, patients with event","22.5 mg/day, N = 4",1
same,"Fatigue, patients with event","22.5 mg/day, N = 4",2
same,"Infusion-related reaction, patients with event","22.5 mg/day, N = 4",0
same,"Nausea, patients with event","22.5 mg/day, N = 4",1
same,"Oedema peripheral, patients with event","22.5 mg/day, N = 4",0
same,"Pyrexia, patients with event","22.5 mg/day, N = 4",1
same,Total number of TEAEs,"22.5 mg/day, N = 4",26
same,Total patients with at least 1 TEAE,"22.5 mg/day, N = 4",4
same,"Vomiting, patients with event","22.5 mg/day, N = 4",1
same,Dose-Limiting Toxicity,"30 mg/day, 3 patients",0
same,"Abdominal pain, patients with event","30 mg/day, N = 3",1
same,"Back pain, patients with event","30 mg/day, N = 3",0
same,"Constipation, patients with event","30 mg/day, N = 3",0
same,"Decreased appetite, patients with event","30 mg/day, N = 3",0
same,"Diarrhea, patients with event","30 mg/day, N = 3",1
same,"Dizziness, patients with event","30 mg/day, N = 3",0
same,"Dyspnea, patients with event","30 mg/day, N = 3",0
same,"Fatigue, patients with event","30 mg/day, N = 3",1
same,"Hyponatraemia, Grade ≥ 3 TEAE, n (%)","30 mg/day, N = 3",1
same,"Infusion-related reaction, patients with event","30 mg/day, N = 3",0
same,"Nausea, patients with event","30 mg/day, N = 3",1
same,"Oedema peripheral, patients with event","30 mg/day, N = 3",0
same,"Pyrexia, patients with event","30 mg/day, N = 3",0
same,"Syncope, Grade ≥ 3 TEAE, n (%)","30 mg/day, N = 3",1 (33)
same,Total number of TEAEs,"30 mg/day, N = 3",16
same,Total patients with at least 1 TEAE,"30 mg/day, N = 3",3
same,"Vomiting, patients with event","30 mg/day, N = 3",0
same,Dose-Limiting Toxicity,"40 mg/day, 4 patients",0
same,"Abdominal distension, Grade ≥ 3 TEAE, n (%)","40 mg/day, N = 4",1 (25)
same,"Abdominal pain, patients with event","40 mg/day, N = 4",0
same,"Back pain, patients with event","40 mg/day, N = 4",0
same,"Blood alkaline phosphatase increased, Grade ≥ 3 TEAE, n (%)","40 mg/day, N = 4",1 (25)
same,"Blood bilirubin increased, Grade ≥ 3 TEAE, n (%)","40 mg/day, N = 4",1 (25)
same,"Constipation, patients with event","40 mg/day, N = 4",0
same,"Decreased appetite, patients with event","40 mg/day, N = 4",0
same,"Diarrhea, patients with event","40 mg/day, N = 4",1
same,"Dizziness, patients with event","40 mg/day, N = 4",0
same,"Dyspnea, patients with event","40 mg/day, N = 4",0
same,"Fatigue, patients with event","40 mg/day, N = 4",1
same,"Hyponatraemia, Grade ≥ 3 TEAE, n (%)","40 mg/day, N = 4",1
same,"Infusion-related reaction, patients with event","40 mg/day, N = 4",0
same,"Nausea, patients with event","40 mg/day, N = 4",0
same,"Oedema peripheral, patients with event","40 mg/day, N = 4",1
same,"Peritonitis, Grade ≥ 3 TEAE, n (%)","40 mg/day, N = 4",1 (25)
same,"Pyrexia, patients with event","40 mg/day, N = 4",1
same,Total number of TEAEs,"40 mg/day, N = 4",21
same,Total patients with at least 1 TEAE,"40 mg/day, N = 4",4
same,"Vomiting, patients with event","40 mg/day, N = 4",1
same,Dose-Limiting Toxicity,"54 mg/day, 3 patients",0
same,"Abdominal pain, patients with event","54 mg/day, N = 3",0
same,"Anaemia, Grade ≥ 3 TEAE, n (%)","54 mg/day, N = 3",1 (33)
same,"Back pain, patients with event","54 mg/day, N = 3",0
same,"Constipation, patients with event","54 mg/day, N = 3",0
same,"Decreased appetite, patients with event","54 mg/day, N = 3",0
same,"Diarrhea, patients with event","54 mg/day, N = 3",0
same,"Dizziness, patients with event","54 mg/day, N = 3",0
same,"Dyspnea, patients with event","54 mg/day, N = 3",0
same,"Fatigue, Grade ≥ 3 TEAE, n (%)","54 mg/day, N = 3",1 (33)
same,"Fatigue, patients with event","54 mg/day, N = 3",2
same,"Infusion-related reaction, patients with event","54 mg/day, N = 3",1
same,"Nausea, patients with event","54 mg/day, N = 3",0
same,"Oedema peripheral, patients with event","54 mg/day, N = 3",0
same,"Pyrexia, patients with event","54 mg/day, N = 3",0
same,Total number of TEAEs,"54 mg/day, N = 3",12
same,Total patients with at least 1 TEAE,"54 mg/day, N = 3",3
same,"Vomiting, patients with event","54 mg/day, N = 3",0
same,Dose-Limiting Toxicity,"72 mg/day, 3 patients",0
same,"Abdominal pain, patients with event","72 mg/day, N = 3",1
same,"Back pain, patients with event","72 mg/day, N = 3",1
same,"Constipation, patients with event","72 mg/day, N = 3",0
same,"Decreased appetite, patients with event","72 mg/day, N = 3",0
